Source: patent US8883798B2, “Pyrimidine compounds inhibiting the formation of nitric oxide and prostaglandin E2, method of production thereof and use thereof” (Ustav Organicke Chemie a Biochemie Akademie Ved CR, V.V.I., priority 2011, dated 2014)

Assays:
peritoneal cells of mice = assay: Cell viability of mouse peritoneal cells (WST-1 kit); format: cell-based; conditions: substance 50 μmol·l^−1, 24 h; for Cell viabilities in % of the controls: Table 3B; for Cell viability in % of the controls: Table 3A
Experimental: Cell viability was determined in the standard way using a WST-1 kit (Roche). The values of the viability of the control cells were for the purposes of comparison between experiments considered as 100%. The influence of the substances on the longevity of the cells was evaluated in percentage with respect to the control values.
(§1) Experiments were performed on mice peritoneal cells C57BL/6 (Charles River, Germany—AnLabu).
(§2) NO production was induced using IFN-g (5000 pg/mL) plus LPS (100 pg/mL); evaluated (Griess reagent) after 24 h of the cell cultivation (2×10^6/mL). PGE2 was induced using LPS (10 ng/mL); evaluated (ELISA) following 6 h cultivation of cells (3×10^6/mL). Cell longevity was evaluated using WST-1 (tetrazolium salt), following 24 h cultivation of cells (1×10^6/mL). The values mentioned in the table represent the effects of the substances tested in a concentration of 50 μmol·l^−1.

[1] = test system: production of nitric oxide (NO); assay: Production of nitric oxide (NO) in cultures of mouse peritoneal cells stimulated with IFN-γ plus LPS (Griess reagent); format: cell-based, mice; conditions: substance 50 μmol·l^−1, IFN-g plus LPS, 24 h
Experimental: (§3) Under in vitro conditions, the effect of the pyrimidine compounds according to this invention was tested in terms of the production of nitric oxide (NO) and in terms of the production of prostaglandin E2 (PGE2) in cultures of the peritoneal cells of mice.
NO is a product of the metabolism of L-arginine, quickly changes to […], which are then measured using the Griess reagent system. Under normal conditions, the production of NO is practically zero. It only occurs after some stimulation. In these experiments, interferon-gamma (IFN-γ) and bacterial lipopolysacharide (LPS) were used as stimulators. The values of NO induced in this way fluctuated in the individual experiments in a range from 52 to 89 μmol·l^−1; for the purposes of comparison between the experiments they were considered as 100%. The production of NO after the application of the substances was expressed in percentage with respect to the control values. (The lower the value, the higher the inhibition effect of the substances on NO production.) IC50 are the concentrations of the substances reducing the production of NO by 50% with respect to the controls.
as §1, §2

[2] = test system: production of prostaglandin E2 (PGE2); assay: Production of prostaglandin E2 (PGE2) in cultures of mouse peritoneal cells stimulated with LPS (ELISA kit); format: cell-based, mice; conditions: for Production of prostaglandins in % of the controls: Table 3A, substance 50 μmol·l^−1, 6 h; for Production of prostaglandins IC50 (μmol · 1^−1) average value and range of values: Table 3B, 6 h
Experimental: as §3
The influence on the production of prostaglandin E2 (PGE2) in vitro caused by the activity of the pyrimidine compounds according to the submitted invention was determined in cultures of the peritoneal cells of mice using a commercial kit (R&DSystems). The concentrations of PGE2 after lipopolysacharide (LPS) stimulation reached in the individual experiments values in a range of 22 to 91 ng·ml^−1 and for the purposes of comparison between the experiments were considered as 100%. The influence of the substances on the production of PGE2 was evaluated in percentage with respect to the control values.
as §1, §2

Row | SMILES | Cell viability in % of the controls (peritoneal cells of mice) | Production of nitric oxide in % of the controls ([1]; Table 3A) | other results
1 | CCCCc1c(-c2ccncc2)nc(N)nc1-c1cccnc1 [Substance 84] |  |  | Cell viabilities in % of the controls (peritoneal cells of mice): 109.54 ± 4.48; n = 8 % of the controls; Production of nitric oxide in % of the controls ([1]; Table 3B): 47.55 ± 7.12; n = 6 % of the controls
2 | CCC(C)c1c(Cl)nc(N=CN(C)C)nc1Cl (stereo not drawn) [Substance 21] | 122.65 ± 14.39 % of the controls | 0.69 ± 0.12 % of the controls | Production of prostaglandins in % of the controls [2]: 8.14 ± 0.07 % of the controls
3 | CCCCc1c(-c2ccncc2)nc(N)nc1-c1cccc2ccccc12 [Substance 137] |  |  | Production of prostaglandins IC50 (μmol · 1^−1) average value and range of values [2]: 28.00 ± 9.43; n = 2 μmol · 1^−1; Cell viabilities in % of the controls (peritoneal cells of mice): 85.07 ± 1.02; n = 4 % of the controls; Production of nitric oxide in % of the controls ([1]; Table 3B): 58.04 ± 6.68; n = 4 % of the controls
4 | CCCCc1c(-c2ccccc2)nc(N)nc1-c1cc2ccccc2o1 [Substance 116] |  |  | Production of prostaglandins IC50 (μmol · 1^−1) average value and range of values [2]: 49.17 ± 9.72; n = 4 μmol · 1^−1; Cell viabilities in % of the controls (peritoneal cells of mice): 95.24 ± 4.78; n = 8 % of the controls; Production of nitric oxide in % of the controls ([1]; Table 3B): 72.69 ± 10.36; n = 4 % of the controls
5 | CCCCc1c(-c2ccsc2)nc(N)nc1-c1cccc2ccccc12 [Substance 140] |  |  | Production of prostaglandins IC50 (μmol · 1^−1) average value and range of values [2]: 40.66 ± 6.87; n = 2 μmol · 1^−1; Cell viabilities in % of the controls (peritoneal cells of mice): 94.34 ± 2.62; n = 4 % of the controls; Production of nitric oxide in % of the controls ([1]; Table 3B): 30.16 ± 2.96; n = 4 % of the controls
6 | CCCCc1c(Cl)nc(N(C)C)nc1Cl [Substance 63] |  | 64.97 ± 2.92 % of the controls | 
7 | CCCCc1c(-c2ccc(OC)cc2)nc(N)nc1-c1ccco1 [Substance 96] |  |  | Production of prostaglandins IC50 (μmol · 1^−1) average value and range of values [2]: 43.05 ± 21.74; n = 4 μmol · 1^−1; Cell viabilities in % of the controls (peritoneal cells of mice): 113.53 ± 4.93; n = 8 % of the controls; Production of nitric oxide in % of the controls ([1]; Table 3B): 50.99 ± 2.60; n = 4 % of the controls
8 | CCCCc1c(Cl)nc(C)nc1Cl [Substance 62] | 80.93 ± 0.84 % of the controls | 41.21 ± 5.50 % of the controls | 
9 | Cc1c(Cl)nc(N)nc1Cl [Substance 25] | 98.55 ± 17.60 % of the controls | 47.30 ± 13.48 % of the controls | 
10 | CCCCc1c(-c2cc3ccccc3o2)nc(N)nc1-c1cc2ccccc2o1 [Substance 47] | 75.01 ± 13.63 % of the controls | 41.23 ± 18.49 % of the controls | 
11 | CCCCc1c(Cl)nc(N)nc1-c1cccs1 [Substance 93] |  |  | Production of prostaglandins IC50 (μmol · 1^−1) average value and range of values [2]: 11.47 ± 2.73; n = 4 μmol · 1^−1; Cell viabilities in % of the controls (peritoneal cells of mice): 74.47 ± 0.81; n = 4 % of the controls
12 | CCCCCCc1c(Cl)nc(NC=O)nc1Cl [Substance 55] | 144.97 ± 18.27 % of the controls | 14.77 ± 9.19 % of the controls | 
13 | CCCCc1c(Cl)nc(N)nc1-c1cc2ccccc2o1 [Substance 44] | 147.78 ± 5.90 % of the controls | 62.62 ± 0.19 % of the controls | 
14 | C#CCc1c(Cl)nc(N)nc1Cl [Substance 33] | 90.58 ± 17.05 % of the controls | 35.98 ± 14.08 % of the controls | 
15 | CCC(C)c1c(I)nc(N)nc1I (stereo not drawn) [Substance 36] |  | 2.80 ± 1.28 % of the controls | 
16 | CCCCc1c(Cl)nc(N)nc1-c1ccccc1 [Substance 41] | 108.24 ± 7.40 % of the controls | 47.82 ± 6.08 % of the controls | 
17 | CCCCc1c(Cl)nc(N)nc1-c1cccnc1 [Substance 43] | 166.77 ± 22.51 % of the controls | 58.68 ± 0.92 % of the controls | 
18 | CCC(C)c1c(Cl)nc(N)nc1Cl (stereo not drawn) [Substance 30] | 111.90 ± 9.63 % of the controls | 47.48 ± 6.22 % of the controls | 

Row | SMILES | Cell viability in % of the controls (peritoneal cells of mice) | Production of nitric oxide in % of the controls ([1]; Table 3A) | other results
19 | C#CCc1c(Cl)nc(NC=O)nc1Cl [Substance 58] |  | 0.69 ± 0.26 % of the controls | Production of prostaglandins in % of the controls [2]: 12.30 ± 0.54 % of the controls
20 | CCCCc1c(-c2cccnc2)nc(N)nc1-c1cccnc1 [Substance 81] |  |  | Cell viabilities in % of the controls (peritoneal cells of mice): 82.21 ± 7.34; n = 8 % of the controls; Production of nitric oxide in % of the controls ([1]; Table 3B): 50.07 ± 3.04; n = 6 % of the controls
21 | CCCCc1c(Cl)nc(N)nc1-c1ccncc1 [Substance 85] |  |  | Cell viabilities in % of the controls (peritoneal cells of mice): 87.62 ± 6.58; n = 4 % of the controls; Production of nitric oxide in % of the controls ([1]; Table 3B): 49.34 ± 4.20; n = 4 % of the controls
22 | C=C(Cl)Cc1c(Cl)nc(NC=O)nc1Cl [Substance 60] | 37.13 ± 1.27 % of the controls | 0.13 ± 0.13 % of the controls | 
23 | CCCCc1c(-c2ccccc2)nc(N)nc1-c1ccccc1 [Substance 45] | 297.33 ± 23.17 % of the controls | 73.29 ± 1.40 % of the controls | 
24 | Nc1nc(Cl)c(-c2ccccc2)c(Cl)n1 [Substance 31] | 82.53 ± 8.73 % of the controls | 36.11 ± 8.38 % of the controls | 
25 | CCCCc1c(-c2ccncc2)nc(N)nc1-c1ccc(OC)cc1 [Substance 83] |  |  | Cell viabilities in % of the controls (peritoneal cells of mice): 95.41 ± 4.70; n = 8 % of the controls; Production of nitric oxide in % of the controls ([1]; Table 3B): 63.81 ± 5.32; n = 6 % of the controls
26 | CCCCc1c(Cl)ncnc1Cl [Substance 61] | 73.73 ± 0.99 % of the controls | 27.38 ± 1.88 % of the controls | 
27 | CCCCc1c(Cl)nc(N)nc1-c1ccsc1 [Substance 42] | 157.36 ± 5.16 % of the controls | 63.18 ± 0.89 % of the controls | 
28 | CCC(C)c1c(Cl)nc(N)nc1I (stereo not drawn) [Substance 37] | 49.11 ± 3.29 % of the controls | 6.67 ± 5.15 % of the controls | 
29 | Nc1nc(Cl)c(Cc2ccccc2)c(I)n1 [Substance 39] | 67.81 ± 3.08 % of the controls | 18.30 ± 7.66 % of the controls | 
30 | CC(C)c1c(Cl)nc(N)nc1Cl [Substance 29] | 91.18 ± 9.90 % of the controls | 36.97 ± 8.22 % of the controls | 
31 | Nc1nc(I)c(Cc2ccccc2)c(I)n1 [Substance 38] | 78.60 ± 5.33 % of the controls | 34.80 ± 0.31 % of the controls | 
32 | Nc1nc(Br)c(Cc2ccccc2)c(Br)n1 [Substance 40] | 90.18 ± 3.75 % of the controls | 32.45 ± 10.99 % of the controls | 
33 | CCc1c(Cl)nc(N)nc1Cl [Substance 26] | 91.53 ± 10.78 % of the controls | 48.59 ± 9.49 % of the controls | 
34 | CCCCc1c(-c2cccnc2)nc(N)nc1-c1cccnc1 [Substance 46] | 107.08 ± 2.94 % of the controls | 70.00 ± 4.82 % of the controls | 
35 | CCCCCCc1c(Cl)nc(N=CN(C)C)nc1Cl [Substance 22] |  | 61.34 ± 3.91 % of the controls | 
